# Article PMC3966878, “Crystal Structure of ORF210 from E. coli O157:H1 Phage CBA120 (TSP1), a Putative Tailspike Protein” (PLoS ONE, 2014)
# B1: TSP1 (tailspike protein 1, ORF210) from bacteriophage CBA120, wild-type, with C-terminal 6X-His tag (natural protein, bacteriophage CBA120 (vB_EcoM_CBA120), UniProt G3M189 1-770, looked up)
# chain: MNEMFSQGGKGSTGILTNKQAVARHFGVKQSEVVYFSVGVDLGGYKVIYDKETQRAYSLPVGIASGTTAVSLSTAAVLVHSAGSVDLGSLAVSREEYVTLPGSFDSGSTLNVKNELLTYTDGKYRWDGILPKTVAPGSTPASTGGVGLGAWISVGDASLRTQLANGDGSLIGIHPQGTLNNVLTVRTPEQYNAVGDGIADDTSKLKEMLSDINNVPETLPDAAAVNSYMEQVAVKIDLTKLYRFTETLYIPPGVSIEIPTSNFFTRECKQGLFYDPVDKNTAAISLMVYRKQPDGSYKLNKDVDYYPTGLDIDNGDAITCARKIDINNLNLITAPGVKVGVKWIGGAGCTTKGLSIGENTGSDITTARLPRVGLLQSASWGSIHENLRILYKTQGAVFIDSNGGAAVNNAYISRLGNTNGELEQAVYKPAGFTEVGDVAVTQFAGSEVKFNSPIIEQASFDFVHAGRDTDSYGLFMVDKPHIESSGGKKKHSFYLINTSSNVTLSGVGLSGQDPDLDSMYFLKNCPETARNVVRGQMPISGVKLVRGTGNYPTLVLDCTNMGSQFQFGEVGDIFYIKDVVGVKADTLYIDPVNGNNYNWGTNGTKPIRELTNIAKICQLFRCKSVYLNAGESVITSNTELPMVVFEGPGSLKANSGSSFLIKAGGTLSLIGLSGISTDGGHMFRVSTVEKVNIHTNCSVNAGAAYVVLSEVQGNIEYRQLFYSVNCSKYIGATAGQTIAGIMVKTATRPTGIDAAPVDGNVSLTYKIIES
# notes: Tailspike protein 1 (TSP1), open reading frame 210 (tsp1) of the phage CBA120 genome, codon-optimised synthetic gene; the encoded 770 amino acid residues followed by six histidines; A construct with an N-terminal 6X-His tag was dropped; the C-terminal tag construct was used for all experiments; also called CBA120 TSP1; wild-type TSP1; source: E. coli BL21 (pBAD24, arabinose induction), purified …
# B2: Selenomethionine derivative of TSP1 (ORF210) from bacteriophage CBA120, with C-terminal 6X-His tag (natural protein, bacteriophage CBA120 (vB_EcoM_CBA120), UniProt G3M189 1-770, looked up)
# chain: B1 chain
# modifications: selenomethionine in place of methionine
# notes: Tailspike protein 1 (TSP1), open reading frame 210 (tsp1) of the phage CBA120 genome, same plasmid pBAD24::tsp1 as m1; the encoded 770 amino acid residues followed by six histidines; also called Se-Met TSP1; SeMet TSP1; source: E. coli B834 (methionine auxotroph, SelenoMet media with 40 mg/L selenomethionine), purified as the wild type; not shown: His6, C-terminal, kept
# Legend:
# [1] = molecular target: T1, TSP1 (ORF210) from CBA120 phage (Escherichia phage Cba120, UniProt G3M189); test: X-ray crystal structure (soak), […] Å; assay type: binding; settings: crystal soak in mother liquor with 37% saturated sugar, Tris-HCl pH 7.0-7.6; site on the surface of D3, single subunit (Tyr306, Tyr427, Phe443, Ala430)
# T1 construct: full length, 770 residues plus C-terminal 6xHis tag; codon-optimized gene expressed in E. coli BL21; homotrimer, 82 kDa monomer; one Zn2+ per trimer
# T1 sequence (G3M189 1-770): B1 chain
# [2] = molecular target: T1, TSP1 (ORF210) from CBA120 phage; test: X-ray crystal structure (soak), […] Å; assay type: binding; settings: crystal soak in mother liquor with 37% saturated sugar, Tris-HCl pH 7.0-7.6
# [3] = molecular target: the molecule itself; test: SEC; analytical gel filtration, Superose 6, 100 ug TSP1, isocratic in PBS; mass from a standard curve of gel filtration standards
# [4] = molecular target: the molecule itself; test: crystal structure; hanging drop, 0.1 M Tris-HCl pH 7.0-7.6, 16% PEG 1000, room temperature; space group P212121; MAD phasing on Se-Met crystal; 1.8 A
molecule,measurement,setting,value
OC[C@H]1O[C@H](O[C@H]2[C@H](O)[C@@H](O)[C@@H](O)O[C@@H]2CO)[C@H](O)[C@@H](O)[C@@H]1O [α-maltose],"X-ray crystal structure (soak), 1.95 Å",[1],4OJP for TSP1/maltose complex
OC[C@H]1O[C@@H](O)[C@H](O)[C@@H](O)[C@@H]1O [glucose],"X-ray crystal structure (soak), 2.0 Å","[2]; site in D3-D4 hole next to D4, single subunit (Glu639, Lys662, Lys615)",4OJL for TSP1/glucose complex
OC[C@H]1O[C@@H](O[C@H]2[C@H](O)[C@@H](O)[C@@H](O)O[C@@H]2CO)[C@H](O)[C@@H](O)[C@H]1O [α-lactose],"X-ray crystal structure (soak), 2.0 Å","[2]; site deep in D3-D4 hole between two subunits (Val579, Lys577, Asp585)",4OJO for TSP1/lactose complex
B1,stoichiometry N,[3],3
B2,stoichiometry N,[4],3
